Measurements as given in patent publication US7662819B2, “Pteridinone derivatives for use as stearoyl CoA desaturase inhibitors” (Gilead Palo Alto, Inc., priority 2007, dated 2010).

Each compound was assayed against T1, stearoyl-CoA desaturase (SCD) (Rattus norvegicus, UniProt P07308) (assay: SCD assay in rat liver microsomes ([3H]stearoyl CoA desaturation, adapted from Talamo and Bloch)). Conditions: rat liver microsomes 0.2 mg/ml assay final, 30 min preincubation, 45 min reaction, room temperature.
T1 construct: from tissue; host or cells: liver microsomes of male Sprague Dawley rats, with SCD induced by a carbohydrate-rich diet after fasting/feeding cycles
T1 sequence (P07308 1-358): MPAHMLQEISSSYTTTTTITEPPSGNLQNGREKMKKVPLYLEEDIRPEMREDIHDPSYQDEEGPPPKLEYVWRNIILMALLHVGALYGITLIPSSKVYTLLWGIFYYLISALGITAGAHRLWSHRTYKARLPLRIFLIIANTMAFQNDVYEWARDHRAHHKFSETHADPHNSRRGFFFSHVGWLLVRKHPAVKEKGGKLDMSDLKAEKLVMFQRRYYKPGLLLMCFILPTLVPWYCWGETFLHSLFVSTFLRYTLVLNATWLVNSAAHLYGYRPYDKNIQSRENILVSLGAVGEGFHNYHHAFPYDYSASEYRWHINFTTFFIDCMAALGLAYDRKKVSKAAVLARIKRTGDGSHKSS
Format: biochemical
Description: The identification of compounds of the invention as SCD inhibitors was readily accomplished using the SCD enzyme and microsomal assay procedure described in Talamo and Bloch (1969) Analytical Biochemistry 29:300-304.
The rat liver microsomes were collected according to the procedure described in Ozols (1990) Methods Enzm, 182:225.
Male Spraque Dawley Rats were placed on regimented fasting protocol for one week to stimulate SCD enzymatic activity. 48-hour periods were alternated between feeding and fasting to induce and down-regulate SCD activity with SCD activity being induced via carbohydrate rich diet prior to liver perfusion and collection.
The rats were anesthetized with Isoflurane inhalation anesthetic, the liver perfused with cold phosphate buffered saline (PBS), weighed, and chilled in cold homogenization buffer (250 mM sucrose, 10 mM Tris, 1 mM EDTA, pH 7.6.
The livers were finely minced and placed in homogenization tube. 40 mL of homogenization buffer was added to the homogenization tube and the liver homogenized and centrifuged in a pre-chilled […] for 10 min at 4° C.
Following centrifugation, the supernatant was collected and the pellet removed and discarded. The supernatant was centrifuge at 10,000 G for 35 minutes. Following centrifugation, the supernatant was collect and the pellet discarded. The supernatant was then centrifuged in a pre-chilled 45-Ti rotor at 130,000 G (41,000 RPM) for 90 minutes at 4° C.
The supernatant was then aspirated off and the collected microsomal pellet washed in 25 mL of Glycerol PBS (1×PBS 7.4, 20% Glycerol) and resuspended in 4-5 volumes of Glycerol PBS.
The protein concentration of the microsomal preparation was determined by BCA assay (Pierce) and the microsomes were aliquoted and stored at −80° C.
Biobeads were ground to a smaller size in a mortar and pestle and resuspended in 3.6% TCA. The beads were then filtered through […] mesh.
SCD was determined in the desaturase assay buffer. This assay buffer contained 0.1 M Tris buffer, pH 7.2, 2 mM NADH, 4.8 mM ATP, 0.5 mM CoA, 4.8 mM MgCl2, and 0.1% BSA.
The Procedure for the SCD Assay (Adapted from Talamo and Bloch (1969) Analytical Biochemistry 29:300-304)
1 μl of each compound of Formula I was added to an assay plate by a low volume (0.5-10 μL) multichannel pipette. A DMSO control was also prepared. The microsomes were quickly thawed and added to assay buffer so that a concentration of 0.4 mg/ml was achieved (0.2 mg/ml assay final). 50 μl of the microsome suspension in assay buffer was then added into each well in the compound assay plate, the plate was covered, and the microsomes preincubated with the compounds for 30 minutes on the orbital shaker, 50-75 rpm, at room temperature.
After preincubation, the reaction was initiated by the addition of 50 μl of substrate solution (20 μM Stearoyl CoA, [3H]Stearoyl CoA, 74 nCi) to the preincubated microsomes/compound suspensions in MilliQ (Millipore) H2O. The reaction mixtures were then incubated for 45 minutes on the orbital shaker at 50-75 rpm at room temperature.
The reaction was terminated by the addition of 10 μl of 21% […] (TCA) to the reaction mixture followed incubation on the orbital shaker for 30 minutes at 50-75 rpm at room temperature followed by centrifugation for 5 minutes at 3700 rpm.
50 μl of a 6% Bio-Bead suspension in H2O was added to the reaction mixture and the assay plate was sealed. The Bio-Bead mixture was incubated on the orbital shaker for 1 hour, 100-150 rpm at room temperature, and then the mixture was centrifuged at 2000 g for 5 minutes to pellet the Bio-Beads.
25 μl of the supernatant was harvested from each well and transferred to a detection plate. 100 μl of OptiPhase SuperMix scinitillation cocktail (containing sufficient NaOH to neutralize the TCA) was added and the solutions mixed by vigorous shaking (300-400 rpm) for 5 minutes at room temperature. […]

Compound	IC50
COCC(=O)NCCn1c(=O)c(-c2ccc(OC)cc2)nc2cnc(NCc3ccc(Cl)c(Cl)c3)nc21 [Compound 8, N-[2-(2-{[(3,4-dichlorophenyl)methyl]amino}-6-(4-methoxyphenyl)-7-oxo(8-hydropteridin-8-yl))ethyl]-2-methoxyacetamide]	1.8 µM
COc1ccc(-c2nc3cnc(NCc4ccc(Cl)c(Cl)c4)nc3n(CCNC(C)=O)c2=O)cc1F [Compound 22, N-[2-(2-{[(3,4-dichlorophenyl)methyl]amino}-6-(3-fluoro-4-methoxyphenyl)-7-oxo-8-hydropteridin-8-yl)ethyl]acetamide]	2.21 µM

The next lines start with the values.

IC50	Compound
4.06 µM	O=C(NCCn1c(=O)c(-c2cccnc2)nc2cnc(NCc3ccc(Cl)c(Cl)c3)nc21)c1ccccc1 [Compound 36, N-[2-(2-{[(3,4-dichlorophenyl)methyl]amino}-7-oxo-6-(3-pyridyl)(8-hydropteridin-8-yl))ethyl]benzamide]
4.34 µM	CC(=O)NCCn1c(=O)c(-c2ncccn2)nc2cnc(NCc3ccc(Cl)c(Cl)c3)nc21 [Compound 21, N-[2-(2-{[(3,4-dichlorophenyl)methyl]amino}-7-oxo-6-pyrimidin-2-yl-8-hydropteridin-8-yl)ethyl]acetamide]
0.47 µM	COc1ccc(-c2nc3cnc(NCc4ccc(Cl)c(Cl)c4)nc3n(CCNC(=O)c3ccsc3)c2=O)cc1 [Compound 23, N-[2-(2-{[(3,4-dichlorophenyl)methyl]amino}-6-(4-methoxyphenyl)-7-oxo(8-hydropteridin-8-yl))ethyl]-3-thienylcarboxamide]
